{
  "source": "paper PMC4142213",
  "about": "(Nature, 2014)",
  "test_system": "DIO mice",
  "test": "OGTT with co-administration of 6bK and sitagliptin",
  "format": "in vivo, mouse",
  "conditions": "OGTT 3.0 g kg^-1, sitagliptin 4 mg kg^-1 oral, 6bK 40 mg kg^-1",
  "data": [
    {"smiles": "N[C@@H](CC(=O)N1CCn2c(nnc2C(F)(F)F)C1)Cc1cc(F)c(F)cc1F", "note": "[sitagliptin]", "values": [
      {"measurement": "reduction of blood glucose profile area compared to vehicle", "value": "60–64%"}
    ]}
  ]
}
